Literature values, collected in patent US4127535A, “Novel dipeptides, intermediates therefor, and compositions and methods employing said dipeptides” (priority 1977, dated 1978).

Key:
[1] = tested on: partially purified brain opiate receptor sites; details: literature, Bradbury et al.
[2] = literature
[3] = injected directly into the brain of the rat; Belluzzi et al.

**Q.** What does the source list for “H-Tyr-Gly-Gly-Phe-Met-OH [methionine enkephalin]”?
**A.** binding to partially purified brain opiate receptor sites [1]: binds stereo-specifically; activity in bioassays for opiate activity [2]: very active; analgesic activity [3]: weak analgesic agent of short duration
